From patent US20220282657A1 (priority 2016, published 2022)

Tested on: spleen cells
Parameters: species or system CD-1 mice
Conditions: mouse, in vivo

Substance: QS21
- cell-mediated immune response (cytokine profile), in words: strong and balanced Th1 plus Th2 cytokine profile
